In US9493446B2, “Orexin receptor antagonists which are [ortho bi-(hetero-)aryl]-[2-(meta bi-(hetero-)aryl)-pyrrolidin-1-yl]-methanone derivatives” (Actelion Pharmaceuticals Ltd, priority 2012, dated 2016):
Read-outs that look alike come from different tables or passages of the source.

Tests used:
orexin-1 = orexin-1 (Homo sapiens (Human), UniProt O43613); experiment: Intracellular calcium measurement (FLIPR), CHO cells expressing human orexin-1 receptor, 3 nM orexin-A; format: cell-based; conditions: read-out: IC50 OX1
Sequence of orexin-1 (O43613 whole entry): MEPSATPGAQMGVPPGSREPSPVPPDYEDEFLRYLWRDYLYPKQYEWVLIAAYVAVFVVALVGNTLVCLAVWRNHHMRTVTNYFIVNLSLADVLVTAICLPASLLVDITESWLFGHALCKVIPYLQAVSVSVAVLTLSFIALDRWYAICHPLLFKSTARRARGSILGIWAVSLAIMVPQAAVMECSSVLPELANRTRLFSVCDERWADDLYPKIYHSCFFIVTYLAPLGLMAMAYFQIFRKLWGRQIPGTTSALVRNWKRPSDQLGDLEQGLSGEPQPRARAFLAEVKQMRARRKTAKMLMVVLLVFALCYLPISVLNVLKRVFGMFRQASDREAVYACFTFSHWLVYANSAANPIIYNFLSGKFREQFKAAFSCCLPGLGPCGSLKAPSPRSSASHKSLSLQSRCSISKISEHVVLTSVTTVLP
Outline: (§1)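 CHO transfectants were dye-loaded (fluo-4 AM, probenecid) and exposed to antagonist for 120 min ahead of agonist.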

human orexin-2 receptor = human orexin-2 receptor (Homo sapiens (Human), UniProt O43614); experiment: Intracellular calcium measurement (FLIPR), CHO cells expressing human orexin-2 receptor, 3 nM orexin-A; format: cell-based; conditions: read-out: IC50 OX2
Sequence of human orexin-2 receptor (O43614 whole entry): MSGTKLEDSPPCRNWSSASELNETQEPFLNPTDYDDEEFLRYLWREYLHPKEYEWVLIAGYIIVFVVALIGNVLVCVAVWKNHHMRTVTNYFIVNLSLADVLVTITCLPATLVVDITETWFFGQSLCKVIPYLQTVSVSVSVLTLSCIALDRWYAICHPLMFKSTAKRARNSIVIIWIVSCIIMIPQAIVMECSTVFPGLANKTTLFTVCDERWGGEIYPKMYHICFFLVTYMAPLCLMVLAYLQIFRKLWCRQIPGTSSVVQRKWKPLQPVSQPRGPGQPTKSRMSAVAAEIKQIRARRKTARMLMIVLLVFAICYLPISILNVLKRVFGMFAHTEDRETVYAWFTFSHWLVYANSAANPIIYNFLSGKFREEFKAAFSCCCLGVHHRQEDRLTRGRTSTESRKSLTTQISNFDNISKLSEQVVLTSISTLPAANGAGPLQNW
Outline: as §1

[1] = CHO cells expressing human orexin-1 receptor, FLIPR, 3 nM orexin-A, geometric mean if determined several times
[2] = CHO cells expressing human orexin-2 receptor, FLIPR, 3 nM orexin-A, geometric mean if determined several times

Row | SMILES | IC50 (orexin-1; [1]) | IC50 (human orexin-2 receptor) | IC50 (human orexin-2 receptor; [2]) | IC50 (orexin-1)
1 | COc1cc(C)cc(-c2nc([C@@H]3CCCN3C(=O)c3cc(OC)c(Cl)cc3-n3nccn3)no2)c1 [compound 352] | 19 nM | 4 nM | – | –
2 | COc1ccc(C)c(-c2nc([C@@H]3CCCN3C(=O)c3cc(OC)c(Cl)cc3-n3nccn3)no2)c1 [compound 353] | 54 nM | – | 5 nM | –
3 | COc1c(Cl)cccc1-c1nc([C@@H]2CCCN2C(=O)c2ccc(C)cc2-n2nccn2)no1 [compound 354] | 12 nM | – | 5 nM | –
4 | COc1cc(C(=O)N2CCC[C@H]2c2noc(-c3cccc(OC)c3C)n2)c(-n2nccn2)cc1Cl [compound 355] | 188 nM | – | 8 nM | –
5 | COc1cccc(-c2nc([C@@H]3CCCN3C(=O)c3cc(C)c(C)cc3-n3nccn3)no2)c1C [compound 356, (4,5-Dimethyl-2-[1,2,3]triazol-2-yl-phenyl)-{(S)-2-[5-(3-methoxy-2-methyl-phenyl)-[1,2,4]oxadiazol-3-yl]-pyrrolidin-1-yl}-methanone] | 57 nM | – | 7 nM | –
6 | COc1c(Cl)cccc1-c1nc([C@@H]2CCCN2C(=O)c2cc(Cl)ccc2-n2nccn2)no1 [compound 357] | 81 nM | 17 nM | – | –
7 | COc1cc(C(=O)N2CCC[C@H]2c2noc(-c3cccc(OC)c3C)n2)c(-n2nccn2)cc1C [compound 358, {(S)-2-[5-(3-Methoxy-2-methyl-phenyl)-[1,2,4]oxadiazol-3-yl]-pyrrolidin-1-yl}-(5-methoxy-4-methyl-2-[1,2,3]triazol-2-yl-phenyl)-methanone] | 128 nM | – | 10 nM | –
8 | COc1cccc(-c2nc([C@@H]3CCCN3C(=O)c3cc(C)ccc3-n3nccn3)no2)c1C [compound 359, {(S)-2-[5-(3-Methoxy-2-methyl-phenyl)-[1,2,4]oxadiazol-3-yl]-pyrrolidin-1-yl}-(5-methyl-2-[1,2,3]triazol-2-yl-phenyl)-methanone] | 325 nM | – | 30 nM | –
9 | COc1c(Cl)cccc1-c1nc([C@@H]2CCCN2C(=O)c2cc(C)c(C)cc2-n2nccn2)no1 [compound 360] | 7 nM | – | 1 nM | –
10 | COc1cccc(-c2nc([C@@H]3CCCN3C(=O)c3cc(Cl)ccc3-n3nccn3)no2)c1C [compound 361] | 127 nM | – | 61 nM | –
11 | COc1cccc(-c2nc([C@@H]3CCCN3C(=O)c3ccc(Cl)cc3-n3nccn3)no2)c1C [compound 362] | 171 nM | 100 nM | – | –
12 | COc1c(F)cccc1-c1nc([C@@H]2CCCN2C(=O)c2cccc(Cl)c2-n2nccn2)no1 [compound 363] | 155 nM | – | 111 nM | –
13 | COc1cccc(-c2nc([C@@H]3CCCN3C(=O)c3ccc(C)cc3-n3nccn3)no2)c1C [compound 364, {(S)-2-[5-(3-Methoxy-2-methyl-phenyl)-[1,2,4]oxadiazol-3-yl]-pyrrolidin-1-yl}-(4-methyl-2-[1,2,3]triazol-2-yl-phenyl)-methanone] | 265 nM | – | 157 nM | –
14 | Cc1cc(-n2nccn2)c(C(=O)N2CCC[C@H]2c2noc(-c3ccccc3OC(F)(F)F)n2)cc1Cl [compound 365] | 13 nM | – | 6 nM | –
15 | CCOc1c(F)cccc1-c1nc([C@@H]2CCCN2C(=O)c2cc(Cl)c(C)cc2-n2nccn2)no1 [compound 366] | 5 nM | – | 3 nM | –
16 | COc1cc(C(=O)N2CCC[C@H]2c2noc(-c3cccc(Cl)c3C)n2)c(-n2nccn2)cc1Cl [compound 367] | 20 nM | – | 2 nM | –
17 | COc1cc(C(=O)N2CCC[C@H]2c2noc(-c3cccc(F)c3OC)n2)c(-n2nccn2)cc1Cl [compound 368] | 11 nM | – | 1 nM | –
18 | CCOc1c(F)cccc1-c1nc([C@@H]2CCCN2C(=O)c2cc(OC)c(Cl)cc2-n2nccn2)no1 [compound 369] | 15 nM | – | 2 nM | –
19 | CCOc1ncccc1-c1nc([C@@H]2CCCN2C(=O)c2cc(OC)c(Cl)cc2-n2nccn2)no1 [compound 370] | 9 nM | – | 1 nM | –
20 | Cc1cc(-n2nccn2)c(C(=O)N2CCC[C@H]2c2noc(-c3cccc(Cl)c3C)n2)cc1Cl [compound 371] | – | – | 7 nM | 18 nM

Row | SMILES | IC50 (orexin-1; [1]) | IC50 (human orexin-2 receptor) | IC50 (human orexin-2 receptor; [2]) | IC50 (orexin-1)
21 | COc1cc(C(=O)N2CCC[C@H]2c2noc(-c3cccc(F)c3C)n2)c(-n2nccn2)cc1F [compound 372, (4-Fluoro-5-methoxy-2-[1,2,3]triazol-2-yl-phenyl)-{(S)-2-[5-(3-fluoro-2-methyl-phenyl)-[1,2,4]oxadiazol-3-yl]-pyrrolidin-1-yl}-methanone] | 377 nM | – | 29 nM | –
22 | COc1cc(C(=O)N2CCC[C@H]2c2noc(-c3cccc(F)c3OC)n2)c(-n2nccn2)cc1F [compound 373, {(S)-2-[5-(3-Fluoro-2-methoxy-phenyl)-[1,2,4]oxadiazol-3-yl]-pyrrolidin-1-yl}-(4-fluoro-5-methoxy-2-[1,2,3]triazol-2-yl-phenyl)-methanone] | 212 nM | – | 5 nM | –
23 | Cc1ccc(C(=O)N2CCC[C@H]2c2noc(-c3ccccc3OC(F)(F)F)n2)c(-n2nccn2)c1 [compound 374, (4-Methyl-2-[1,2,3]triazol-2-yl-phenyl)-{(S)-2-[5-(2-trifluoromethoxy-phenyl)-[1,2,4]oxadiazol-3-yl]-pyrrolidin-1-yl}-methanone] | 18 nM | – | 11 nM | –
24 | COc1cc(C(=O)N2CCC[C@H]2c2noc(-c3ccccc3OC(F)(F)F)n2)c(-n2nccn2)cc1Cl [compound 375] | 67 nM | – | 6 nM | –
25 | O=C(c1ccc(Cl)cc1-n1nccn1)N1CCC[C@H]1c1noc(-c2ccccc2OC(F)(F)F)n1 [compound 376] | – | – | 11 nM | 23 nM
26 | O=C(c1cc(Cl)ccc1-n1nccn1)N1CCC[C@H]1c1noc(-c2ccccc2OC(F)(F)F)n1 [compound 377] | 68 nM | – | 15 nM | –
27 | COc1c(F)cccc1-c1nc([C@@H]2CCCN2C(=O)c2ccc(Cl)cc2-n2nccn2)no1 [compound 378] | 30 nM | 2 nM | – | –
28 | Cc1c(F)cccc1-c1nc([C@@H]2CCCN2C(=O)c2ccc(Cl)cc2-n2nccn2)no1 [compound 379] | 52 nM | – | 5 nM | –
29 | COc1ccc(C)cc1-c1nc([C@@H]2CCCN2C(=O)c2ccc(Cl)cc2-n2nccn2)no1 [compound 381] | 136 nM | – | 28 nM | –
30 | COc1cc(C)cc(-c2nc([C@@H]3CCCN3C(=O)c3cc(C)c(C)cc3-n3nccn3)no2)c1 [compound 382, (4,5-Dimethyl-2-[1,2,3]triazol-2-yl-phenyl)-{(S)-2-[5-(3-methoxy-5-methyl-phenyl)-[1,2,4]oxadiazol-3-yl]-pyrrolidin-1-yl}-methanone] | 10 nM | – | 4 nM | –
31 | COc1ccc(C)c(-c2nc([C@@H]3CCCN3C(=O)c3cc(C)c(C)cc3-n3nccn3)no2)c1 [compound 383, (4,5-Dimethyl-2-[1,2,3]triazol-2-yl-phenyl)-{(S)-2-[5-(5-methoxy-2-methyl-phenyl)-[1,2,4]oxadiazol-3-yl]-pyrrolidin-1-yl}-methanone] | 30 nM | – | 4 nM | –
32 | COc1ccc(C)cc1-c1nc([C@@H]2CCCN2C(=O)c2cc(C)c(C)cc2-n2nccn2)no1 [compound 384, (4,5-Dimethyl-2-[1,2,3]triazol-2-yl-phenyl)-{(S)-2-[5-(2-methoxy-5-methyl-phenyl)-[1,2,4]oxadiazol-3-yl]-pyrrolidin-1-yl}-methanone] | 22 nM | – | 2 nM | –
33 | COc1cc(C)cc(-c2nc([C@@H]3CCCN3C(=O)c3cc(OC)c(C)cc3-n3nccn3)no2)c1 [compound 385, {(S)-2-[5-(3-Methoxy-5-methyl-phenyl)-[1,2,4]oxadiazol-3-yl]-pyrrolidin-1-yl}-(5-methoxy-4-methyl-2-[1,2,3]triazol-2-yl-phenyl)-methanone] | 26 nM | – | 8 nM | –
34 | COc1ccc(C)c(-c2nc([C@@H]3CCCN3C(=O)c3cc(OC)c(C)cc3-n3nccn3)no2)c1 [compound 386, {(S)-2-[5-(5-Methoxy-2-methyl-phenyl)-[1,2,4]oxadiazol-3-yl]-pyrrolidin-1-yl}-(5-methoxy-4-methyl-2-[1,2,3]triazol-2-yl-phenyl)-methanone] | 118 nM | – | 7 nM | –
35 | COc1cc(C(=O)N2CCC[C@H]2c2noc(-c3cc(C)ccc3OC)n2)c(-n2nccn2)cc1C [compound 387, {(S)-2-[5-(2-Methoxy-5-methyl-phenyl)-[1,2,4]oxadiazol-3-yl]-pyrrolidin-1-yl}-(5-methoxy-4-methyl-2-[1,2,3]triazol-2-yl-phenyl)-methanone] | 57 nM | – | 3 nM | –
36 | CCc1ccccc1-c1nc([C@@H]2CCCN2C(=O)c2cc(C)ccc2-n2nccn2)no1 [compound 389, {(S)-2-[5-(2-Ethyl-phenyl)-[1,2,4]oxadiazol-3-yl]-pyrrolidin-1-yl}-(5-methyl-2-[1,2,3]triazol-2-yl-phenyl)-methanone] | 35 nM | – | 15 nM | –
37 | Cc1ccc(-n2nccn2)c(C(=O)N2CCC[C@H]2c2noc(-c3cc(C)ccc3C)n2)c1 [compound 390, {(S)-2-[5-(2,5-Dimethyl-phenyl)-[1,2,4]oxadiazol-3-yl]-pyrrolidin-1-yl}-(5-methyl-2-[1,2,3]triazol-2-yl-phenyl)-methanone] | 73 nM | – | 6 nM | –
38 | Cc1ccc(C(=O)N2CCC[C@H]2c2noc(-c3cccc(C)c3C)n2)c(-n2nccn2)c1 [compound 391, {(S)-2-[5-(2,3-Dimethyl-phenyl)-[1,2,4]oxadiazol-3-yl]-pyrrolidin-1-yl}-(4-methyl-2-[1,2,3]triazol-2-yl-phenyl)-methanone] | 68 nM | – | 14 nM | –
39 | CCc1ccccc1-c1nc([C@@H]2CCCN2C(=O)c2ccc(C)cc2-n2nccn2)no1 [compound 392, {(S)-2-[5-(2-Ethyl-phenyl)-[1,2,4]oxadiazol-3-yl]-pyrrolidin-1-yl}-(4-methyl-2-[1,2,3]triazol-2-yl-phenyl)-methanone] | 17 nM | – | 17 nM | –
